Test results taken from PMC11672400, “Synthesis, Spectroscopic Characterization, Structural Analysis, and Evaluation of Anti-Tumor, Antimicrobial, and Antibiofilm Activities of Halogenoaminopyrazoles Derivatives” (Antibiotics, 2024).
Values after ≈ are worked out from the molar mass of the structure shown. Read-outs that look alike come from different tables or passages of the source.

How the values were obtained:
[1] = test system: Pseudomonas aeruginosa ATCC27853; experiment: Antibiofilm assay (crystal violet), MBIC; assay type: cell-based; conditions: 37 °C; for minimal effective concentration: Pseudomonas aeruginosa, ATCC27853, 24 h, read-out: Minimum biofilm inhibition concentration (MBIC), Pseudomonas aeruginosa ATCC27853
Method: (§1) Microorganisms were grown in 96-well plates filled with nutrient broth along with test substances, followed by incubation at 37 °C for 24 h. Plates were cleaned and rinsed thrice using SPW solution (sterile physiological water). After that, the attached cells were treated with 110 μL of methanol for 5 min, and then the methanol was removed by turning it upside down. […] Once stained, the solution was removed, and the plates were washed with running tap water. […] The antimicrobial/antibiofilm activity of the compounds was evaluated against two antibiotics, commercial formulations of metronidazole and nitrofurantoin.

[2] = test system: Escherichia coli ATCC25922; experiment: Antibiofilm assay (crystal violet), MBIC; assay type: cell-based; conditions: Escherichia coli, ATCC25922, 24 h, 37 °C, read-out: Minimum biofilm inhibition concentration (MBIC), Escherichia coli ATCC25922
Method: as §1

[3] = test system: Enterococcus faecalis ATCC29212; experiment: Antibiofilm assay (crystal violet), MBIC; assay type: cell-based; conditions: Enterococcus faecalis, ATCC29212, 24 h, 37 °C, read-out: Minimum biofilm inhibition concentration (MBIC), Enterococcus faecalis ATCC29212
Method: as §1

[4] = test system: Staphylococcus aureus ATCC25923; experiment: Antibiofilm assay (crystal violet), MBIC; assay type: cell-based; conditions: Staphylococcus aureus, ATCC25923; 24 h, 37 °C; read-out: Minimum biofilm inhibition concentration (MBIC), Staphylococcus aureus ATCC25923
Method: as §1

[5] = test system: Pseudomonas aeruginosa ATCC27853; experiment: MIC by serial microdilution in liquid medium; assay type: cell-based; conditions: Pseudomonas aeruginosa, ATCC27853; 24 h, 37 °C; read-out: Minimum inhibitory concentration, Pseudomonas aeruginosa ATCC27853
Method: (§2) The minimum inhibitory concentrations (MIC) were determined by the serial microdilution method in a liquid medium (Tryptone Soy Broth), on 96-well plates. Serial binary dilutions of the compound stock solution (10 mg/mL in DMSO) were carried out in 90 µL of culture medium and 10 µL of 10^6 CFU/mL (Colony Forming Units) microbial suspension. Each test included a positive control (wells with culture medium and microbial suspension) and a negative control for medium sterility. After incubation at 37 °C for 24 h the plates were visually examined, and optical density was measured at 620 nm. […] The MIC value (µg/mL) for the chemical compound was determined by the concentration in the final well without bacterial growth. All experiments were performed in triplicate.

[6] = test system: Escherichia coli ATCC25922; experiment: MIC by serial microdilution in liquid medium; assay type: cell-based; conditions: Escherichia coli, ATCC25922; 24 h, 37 °C; read-out: Minimum inhibitory concentration, Escherichia coli ATCC25922
Method: as §2

[7] = test system: Enterococcus faecalis ATCC29212; experiment: MIC by serial microdilution in liquid medium; assay type: cell-based; conditions: Enterococcus faecalis, ATCC29212; 24 h, 37 °C; read-out: Minimum inhibitory concentration, Enterococcus faecalis ATCC29212
Method: as §2

[8] = test system: Staphylococcus aureus ATCC25923; experiment: MIC by serial microdilution in liquid medium; assay type: cell-based; conditions: Staphylococcus aureus, ATCC25923; 24 h, 37 °C; read-out: Minimum inhibitory concentration, Staphylococcus aureus ATCC25923
Method: as §2

[9] = test system: Pseudomonas aeruginosa ATCC27853; experiment: Qualitative evaluation of antimicrobial activity (inhibition zone, spot on agar); assay type: cell-based; parameters: key: (+) inhibited bacterial growth; (-) did not inhibit bacterial growth; conditions: 0.06 g/2 mL DMSO, 5 µL spot
Method: (§3) For testing the antimicrobial/antibiofilm activity, the concentration of the studied compounds was identical to 0.06 g/2 mL DMSO. 0.5 Standard McFarland suspension was used, which was inoculated onto Mueller Hinton agar plates, (Remel, Lenexa, KS, USA), 5 µL of each compound was spotted and incubated overnight at 37 °C. Antimicrobial activity was observed as zones of inhibition formed around the spot.

[10] = test system: Escherichia coli ATCC25922; experiment: as above; assay type: cell-based; parameters: key: (+) inhibited bacterial growth; (-) did not inhibit bacterial growth; conditions: 0.06 g/2 mL DMSO, 5 µL spot
Method: as §3

[11] = test system: Enterococcus faecalis ATCC29212; experiment: as above; assay type: cell-based; parameters: key: (+) inhibited bacterial growth; (-) did not inhibit bacterial growth; conditions: 0.06 g/2 mL DMSO, 5 µL spot
Method: as §3

[12] = test system: Staphylococcus aureus ATCC25923; experiment: as above; assay type: cell-based; parameters: key: (+) inhibited bacterial growth; (-) did not inhibit bacterial growth; conditions: 0.06 g/2 mL DMSO, 5 µL spot
Method: as §3

[13] = MTT cell viability / cytotoxicity on normal fibroblasts; assay type: cell-based, mouse; conditions: mouse, NCTC clone 929 (L929) mouse fibroblast cells
Description: Merck chemicals were utilized.
Untreated cells were used as control, considered 100% viable cells.

[14] = test system: HEp-2 epithelial tumor cells; experiment: MTT cell viability / anti-tumor activity; conditions: Homo sapiens, read-out: Cell viability on Hep2 cells (%)

| Compound | minimal effective concentration [1] [µg/mL] | minimal effective concentration [2] [µg/mL] | minimal effective concentration [3] [µg/mL] | minimal effective concentration [4] [µg/mL] | MIC [5] [µg/mL] | MIC [6] [µg/mL] | MIC [7] [µg/mL] | MIC [8] [µg/mL] | Qualitative antimicrobial activity, Pseudomonas aeruginosa ATCC27853 [9] | Qualitative antimicrobial activity, Escherichia coli ATCC25922 [10] | Qualitative antimicrobial activity, Enterococcus faecalis ATCC29212 [11] | Qualitative antimicrobial activity, Staphylococcus aureus ATCC25923 [12] | viability at 24 h, 3.1 µg/mL [13] [%] | viability at 48 h, 3.1 µg/mL [13] [%] | viability at 24 h, 6.25 µg/mL [13] [%] | viability at 48 h, 6.25 µg/mL [13] [%] | viability at 24 h, 12.5 µg/mL [13] [%] | viability at 48 h, 12.5 µg/mL [13] [%] | viability at 24 h, 25 µg/mL [13] [%] | viability at 48 h, 25 µg/mL [13] [%] | also measured |
| --- | --- | --- | --- | --- | --- | --- | --- | --- | --- | --- | --- | --- | --- | --- | --- | --- | --- | --- | --- | --- | --- |
| Cc1nn(CNc2ccc(I)cc2)c(C)c1[N+](=O)[O-] [4d, N-[(3,5-dimetyl-4-nitro-1H-pyrazol-1-yl)-methyl]-4-iodoaniline] | 460 | 930 ± 0.18 | 930 ± 0.53 | 930 ± 0.03 | 930 ± 0.02 (≈ 2500 µM) | 930 ± 0.1 (≈ 2500 µM) | 930 ± 0.53 (≈ 2500 µM) | 930 ± 0.55 (≈ 2500 µM) | - | - | - | - | 99.9 ± 2.31 | 95.69 ± 0.8 | 101 ± 2.24 | 96.26 ± 0.78 | 103 ± 3.44 | 92.6 ± 1.4 | 102 ± 1.07 | 91.5 ± 1.41 | Minimum biofilm inhibition concentration (MBIC), Pseudomonas aeruginosa ATCC27853 ([1]; 24 h): 460 ± 0.05 µg/mL; viability at 24 h, 50 µg/mL [13]: 101 ± 2.55%; viability at 48 h, 50 µg/mL [13]: 88.2 ± 2.1%; melting point: 91 to 92 °C; viability at 3.1 µg/mL ([14]; HEp-2, 24 h): 105 ± 1.93%; viability at 6.25 µg/mL ([14]; HEp-2, 24 h): 110 ± 2.64%; viability at 12.5 µg/mL ([14]; HEp-2, 24 h): 113 ± 3.48%; viability at 25 µg/mL ([14]; HEp-2, 24 h): 109 ± 2.75%; viability at 50 µg/mL ([14]; HEp-2, 24 h): 106 ± 1.63%; viability at 3.1 µg/mL ([14]; HEp-2, 48 h): 101 ± 3.72%; viability at 6.25 µg/mL ([14]; HEp-2, 48 h): 110 ± 3.49%; viability at 12.5 µg/mL ([14]; HEp-2, 48 h): 111 ± 2.8%; viability at 25 µg/mL ([14]; HEp-2, 48 h): 101.6 ± 0.56%; viability at 50 µg/mL ([14]; HEp-2, 48 h): 69 ± 0.81% |
| Cc1nn(CNc2ccc(Br)cc2)c(C)c1[N+](=O)[O-] [4c, N-[(3,5-dimetyl-4-nitro-1H-pyrazol-1-yl)-methyl]-4-bromoaniline] | 930 ± 0.52 | 930 ± 0.11 | 930 ± 1.09 | 930 ± 0.06 | 930 ± 1.08 (≈ 2860 µM) | 930 ± 1.05 (≈ 2860 µM) | 930 ± 0.03 (≈ 2860 µM) | 930 ± 0.04 (≈ 2860 µM) | - | - | - | - | 99.2 ± 0.97 | 99.67 ± 0.71 | 97.1 ± 3.04 | 98.8 ± 1.92 | 95.6 ± 0.62 | 97.2 ± 3.5 | 95.5 ± 2.14 | 95.6 ± 2.93 | viability at 24 h, 50 µg/mL [13]: 91.1 ± 3.04%; viability at 48 h, 50 µg/mL [13]: 81.5 ± 3.26%; melting point: 118 to 120 °C; viability at 3.1 µg/mL ([14]; HEp-2, 24 h): 101 ± 2.04%; viability at 6.25 µg/mL ([14]; HEp-2, 24 h): 103 ± 2.31%; viability at 12.5 µg/mL ([14]; HEp-2, 24 h): 100 ± 3.15%; viability at 25 µg/mL ([14]; HEp-2, 24 h): 98.7 ± 1.83%; viability at 50 µg/mL ([14]; HEp-2, 24 h): 92.64 ± 0.9%; viability at 3.1 µg/mL ([14]; HEp-2, 48 h): 116 ± 2.55%; viability at 6.25 µg/mL ([14]; HEp-2, 48 h): 104.2 ± 0.88%; viability at 12.5 µg/mL ([14]; HEp-2, 48 h): 99.6 ± 2.32%; viability at 25 µg/mL ([14]; HEp-2, 48 h): 82.6 ± 3.28%; viability at 50 µg/mL ([14]; HEp-2, 48 h): 70.2 ± 1.91% |
